This is an account of results in paper PMC2806525, “Proteinase-activated receptor-2 mediated inhibition of TNFα-stimulated JNK activation — A novel paradigm for Gq/11 linked GPCRs” (Cellular Signalling, 2010).

“Also recorded” adds a separate entry of the source.

The test system of assay [1] is β2. The settings on record: ref [34]; cited from earlier work. The text has this: (§1) Thus, we can discern two agonist-mediated directed events which relate to the activation of JNK. This type of m ...
Assay [2] deals with β2. The settings on record: ref [34]; cited from earlier work. This is another data set of the same source.
In assay [3] the target is T1, human PAR2 (Homo sapiens, UniProt P55085).
T1 construct: expressed in transfected cells
T1 sequence (P55085 26-397): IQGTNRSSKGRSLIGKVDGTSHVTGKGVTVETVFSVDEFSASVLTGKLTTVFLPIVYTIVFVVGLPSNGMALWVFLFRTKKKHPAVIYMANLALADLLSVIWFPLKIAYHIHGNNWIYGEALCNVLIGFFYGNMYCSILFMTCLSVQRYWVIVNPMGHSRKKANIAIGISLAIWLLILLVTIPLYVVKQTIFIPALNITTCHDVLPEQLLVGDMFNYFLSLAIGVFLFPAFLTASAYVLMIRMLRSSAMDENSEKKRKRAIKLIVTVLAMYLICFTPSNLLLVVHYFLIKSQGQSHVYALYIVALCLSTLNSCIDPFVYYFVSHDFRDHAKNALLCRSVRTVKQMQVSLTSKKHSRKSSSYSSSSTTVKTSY
Put plainly: TNFα-stimulated JNK activity (in vitro c-Jun phosphorylation), PAR2 agonist pre-incubation, PAR2 NCTC2544 cells (clone G). It is filed as cell-based. The settings on record: pre-incubation 30 min, TNFα 10 ng/ml 30 min. How it is done:
(§2) Human skin epithelial cells NCTC2544 were maintained in M199 medium with Earl's salt supplement, 10% (v/v) foetal calf serum, L-glutamine (27 µg/ml), penicillin (250 U/ml), and streptomycin (25 mg/ml). NCTC2544 cells stably expressing human PAR2 (clone G) were maintained in complete M199 medium containing 400 μg/ml of Geneticin for selection pressure and passaged using Versene (2% EDTA/PBS). EAhy-926 cells were produced by hybridizing human umbilical vein endothelial cells (HUVECs) with the epithelial cell line A549 [27] and maintained in Dulbecco's Modified Eagle's Medium (DMEM) supplemented with 10% foetal calf serum (FCS), hypoxanthine/aminopterin/thymidine (HAT supplement), penicillin (250 U/ml) and streptomycin (25 mg/ml), and cells were passaged using Versene.
To measure JNK activity, cells were stimulated as appropriate and the reaction terminated by rapid aspiration and the addition of ice-cold PBS. […] Phosphorylation of GST-c-Jun was then determined by autoradiography. […]
(§3) Fig. 1 PAR2 activation mediates inhibition of TNFα-stimulated JNK activity and phosphorylation in PAR2 NCTC2544 cells. […] Samples were assessed for JNK activity (Panel A) or phospho-JNK levels (Panel C) as outlined in the Methods section. Gels from JNK assays were quantified (Panel B). Each value represents the mean ± s.e.m from at least 4 experiments and data was quantified by densitometry. ⁎P < 0.05, ⁎⁎P < 0.01 compared to TNFα alone.
Fig. 4 Concentration response effects of PAR2 peptides for activation of JNK and inhibition of TNFα-stimulated JNK. PAR2 expressing NCTC2544 cells (clone G) were incubated with increasing concentrations of SLIGKV-OH or 2f-LIGKV-OH for 30 min and assayed for JNK activity (Panel B) or stimulated for a further 30 min with TNFα (+) before JNK activity was assessed (Panel A). Samples were assessed for JNK activity as outlined in the Methods section. Gels from JNK assays were quantified (Panel C). Each value represents the mean ± s.e.m from at least 4 experiments and data was quantified by densitometry.

Assay [4] concerns the target T1, human PAR2. Put plainly: TNFα-stimulated JNK phosphorylation (Western blot), PAR2 NCTC2544 cells (clone G). The note with it: pre-incubation 30 min, TNFα 10 ng/ml 30 min. It is filed as cell-based. The protocol: as §2
(§4) Proteins were separated by 10% SDS–PAGE and transferred onto nitrocellulose. […]
as §3
For orientation: Immunoblotting shows a protein as a band on a membrane.

Assay [5] concerns the target T1, human PAR2. The note with it: ref [17]; cited from earlier work.
Excerpt: as §1

Assay [6] deals with TNFR1/TRADD. Put plainly: TNFR1/TRADD complex formation (TNFR1 immuno-precipitation, TRADD immuno-blot), PAR2 expressing cells. It is filed as cell-based, human. The settings on record: TNFα 10 ng/ml 30 min, versus basal. How it is done: as §2
Proteins were separated by 10% SDS–PAGE and transferred onto nitrocellulose. The membranes were blocked for non-specific binding for 2 h in 2% BSA (w/v) diluted in NATT buffer (50 mM Tris–HCl, 150 mM NaCl, 0.2% (v/v) Tween-20). The blots were then incubated overnight with 50 ng/ml primary antibody diluted in 0.2% BSA (w/v) in NATT buffer. The blots were washed with NATT buffer for 90 min and incubated with HRP-conjugated secondary antibody (20 ng/ml in 0.2% BSA (w/v) diluted in NATT buffer) for 2 h. After a further 90 min wash, the blots were subjected to ECL reagent and exposed to Kodak X-ray film.
For immuno-precipitation of TNFR1, equal amounts of pre-cleared cell lysates were incubated in Tris–HCl buffer, pH 7.4, containing 50 mM NaCl, 1 mM EDTA, 1 mM EGTA, 1% (w/v) Triton X-100, and 0.5% (w/v) Nonidet P-40, with 2 μg TNFR1 antibody, pre-coupled to protein G, for 3 h. Lysates were recovered by sequential washes in solubilisation buffer and in the same buffer lacking detergents. Precipitates were assessed for TRADD or RIP content using Western blotting.
Fig. 7 PAR2 mediated TNFR1 adapter protein disruption in PAR2 expressing cells. In Panel A, cells were pre-treated with peptide (100 μM) or vehicle prior to stimulation with TNFα (10 ng/ml) for 30 min. Lysates were immuno-precipitated for TNFR1 and immuno-blotted for TRADD and/or RIP, as outlined in the Methods section. In Panel B cells were pre-treated with 100 nM YM254890 or 3 μM GF109203X for 30 min prior to pre-treatment with peptide (100 μM), for 30 min, then incubated for a further 30 min with TNFα (10 ng/ml). TNFR1 immuno-precipitates were immuno-blotted for TRADD. Each gel is representative of at least three experiments.

Assay [7] relates to TNFR1/RIP. Put plainly: TNFR1/RIP complex formation (TNFR1 immuno-precipitation, RIP immuno-blot), PAR2 expressing cells. It is filed as cell-based, human. The note with it: TNFα 10 ng/ml 30 min, versus basal. How it is done:
as §2
Proteins were separated by 10% SDS–PAGE and transferred onto nitrocellulose. The membranes were blocked for non-specific binding for 2 h in 2% BSA (w/v) diluted in NATT buffer (50 mM Tris–HCl, 150 mM NaCl, 0.2% (v/v) Tween-20). […]
For immuno-precipitation of TNFR1, equal amounts of pre-cleared cell lysates were incubated in Tris–HCl buffer, pH 7.4, containing 50 mM NaCl, 1 mM EDTA, 1 mM EGTA, 1% (w/v) Triton X-100, and 0.5% (w/v) Nonidet P-40, with 2 μg TNFR1 antibody, pre-coupled to protein G, for 3 h. […] Precipitates were assessed for TRADD or RIP content using Western blotting. […]

Assay [8] relates to ERK. Briefly: ERK activation, PAR2 NCTC2544 cells. It is filed as cell-based, human. The settings on record: response to TNFα; data not shown. The protocol:
as §2

Assay [9] deals with JNK. Put plainly: TNFα-stimulated JNK phosphorylation and activity, PAR2 NCTC2544 cells. Format: cell-based, human. The settings on record: TNFα 10 ng/ml 30 min, untreated cells. How it is done:
as §2, §4
To measure JNK activity, cells were stimulated as appropriate and the reaction terminated by rapid aspiration and the addition of ice-cold PBS. […] Phosphorylation of GST-c-Jun was then determined by autoradiography.
Fig. 6 Gq/11 is essential for PAR2 mediated inhibition of JNK activation by TNFα. […] Samples were assessed for phospho-JNK levels (Panels A and D) or JNK activity (Panel B) as outlined in the Methods section. Gels from JNK activity assays were quantified by densitometry (Panel C). […]

For the compound `CC(C)NCC(O)COc1cccc2ccccc12` (stereo not drawn) [propranolol], the “cAMP accumulation, functional behaviour” value in assay [1] is recorded as “inverse agonist”. The “ERK activation, functional behaviour” value in [2] is reported as “partial agonist”.

For the compound trypsin, the “effect on TNFα-stimulated JNK activity” value in assay [3] was “strongly inhibited both the phosphorylation and activity of JNK; also recorded: concentration-dependent inhibition of subsequent TNFα-stimulated JNK activity; also recorded: strongly mediate an inhibition of TNFα mediated JNK signalling”. Besides, the “effect on TNFα-stimulated JNK phosphorylation” value in assay [4] is “strongly inhibited both the phosphorylation and activity of JNK”. Also, the “JNK activity on PAR2 activation” value in assay [5] is recorded as “increase in JNK activity”.

With tumour necrosis factor-α [TNFα], the “TRADD recovery with TNFR1 on stimulation” value in assay [6] is “marked increase in both TRADD and RIP recovery”. Besides, the “RIP recovery with TNFR1 on stimulation” value in assay [7] is “marked increase in both TRADD and RIP recovery”. The “ERK activation” value in assay [8] was “negligible”. The “TNFα stimulation of JNK phosphorylation and activity” value in assay [9] was “stimulated JNK phosphorylation and activity as expected”.
